We go through 19 molecules from patent publication US10221177B2 (HYDRA BIOSCIENCES, INC., priority 2014, dated 2019).

Sequence of human TRPA1 (O75762 whole entry): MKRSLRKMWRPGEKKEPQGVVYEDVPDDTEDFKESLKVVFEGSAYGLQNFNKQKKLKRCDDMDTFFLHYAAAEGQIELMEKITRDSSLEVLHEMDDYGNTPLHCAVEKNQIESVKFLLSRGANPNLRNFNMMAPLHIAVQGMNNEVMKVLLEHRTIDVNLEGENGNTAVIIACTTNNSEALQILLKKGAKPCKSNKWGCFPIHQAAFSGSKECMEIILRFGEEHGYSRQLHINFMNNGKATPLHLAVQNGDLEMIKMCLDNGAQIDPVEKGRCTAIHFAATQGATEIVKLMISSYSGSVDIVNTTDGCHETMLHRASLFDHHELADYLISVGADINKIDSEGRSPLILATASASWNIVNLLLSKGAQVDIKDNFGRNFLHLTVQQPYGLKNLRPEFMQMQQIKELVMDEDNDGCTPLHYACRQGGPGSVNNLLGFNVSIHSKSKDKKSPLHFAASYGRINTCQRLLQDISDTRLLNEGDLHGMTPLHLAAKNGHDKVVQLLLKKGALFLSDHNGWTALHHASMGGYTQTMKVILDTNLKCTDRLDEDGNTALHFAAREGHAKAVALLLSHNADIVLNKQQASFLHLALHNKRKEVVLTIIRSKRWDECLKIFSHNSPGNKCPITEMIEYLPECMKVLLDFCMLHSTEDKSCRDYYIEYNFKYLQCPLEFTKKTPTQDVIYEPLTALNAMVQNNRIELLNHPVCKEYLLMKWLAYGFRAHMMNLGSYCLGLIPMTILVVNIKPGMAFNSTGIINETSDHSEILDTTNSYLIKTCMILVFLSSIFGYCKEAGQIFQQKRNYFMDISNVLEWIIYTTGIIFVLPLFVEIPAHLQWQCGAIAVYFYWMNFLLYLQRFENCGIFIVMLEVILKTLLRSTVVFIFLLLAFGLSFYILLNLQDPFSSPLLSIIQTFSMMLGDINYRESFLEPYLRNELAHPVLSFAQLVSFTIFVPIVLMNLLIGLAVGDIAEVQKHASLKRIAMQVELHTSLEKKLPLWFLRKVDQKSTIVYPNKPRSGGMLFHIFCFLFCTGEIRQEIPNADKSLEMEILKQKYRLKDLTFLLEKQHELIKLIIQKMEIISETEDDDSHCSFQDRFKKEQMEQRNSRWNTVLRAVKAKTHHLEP

This assay concerns the target human TRPA1 (Homo sapiens (Human), UniProt O75762). Put plainly: In vitro inhibition of human TRPA1, whole cell patch configuration. It is filed as cell-based. The conditions noted are these: current activation 10 μM AITC, tested concentrations 320 pM to 3.2 μM, read-out: hTRPA1 IC50. As to the method:
All currents were recorded in whole-cell configuration using EPC-9 and EPC-10 amplifiers and Patchmaster software (HEKA) or similar. […] The standard bath solution contained 150 mM NaCl, 10 mM HEPES, 10 mM glucose, 4.5 mM KCl, 1 mM EGTA, 3 mM MgCl2, with pH adjusted to 7.4 with NaOH. In some instances, 2 mM CaCl2 was added in place of EGTA and the concentration of MgCl2 was reduced to 1 mM.
Data were collected either by continuous recordings at −60 mV or by applying voltage ramps from a holding potential of −40 mV every 4 s. Continuous recordings were collected at 400 Hz and digitally filtered off-line at 10 Hz for presentation. Voltage ramps were applied from −100 mV or −80 mV to +100 mV or +80 mV over the course of 400 ms, and data were collected at 10 kHz and filtered at 2.9 kHz. Inward and outward currents were analyzed from the ramps at −80 and 80 mV, respectively. Liquid junction potential correction was not used.
Solutions were switched using a gravity-fed continuous focal perfusion system. To achieve rapid temperature changes, two temperature control, and perfusion systems were employed simultaneously. […] Temperatures were confirmed using a thermistor (Warner Instruments, TA-29), with temperatures at the recorded cell estimated to be within +/−2° C. of those reported.
The antagonist effects of compounds of Formula (I) against human TRPA1 (“hTRPA1”) in a whole cell patch configuration were evaluated using the in vitro assay described above.
Turning to `Cc1cc(Cn2c(=O)c3c(ncn3[C@@H](C)C(=O)Nc3csc(-c4cnc(C(F)(F)F)nc4)n3)n(C)c2=O)no1` [Compound 32, (S)-2-(3-methyl-1-((5-methylisoxazol-3-yl)methyl)-2,6-dioxo-2,3-dihydro-1H-purin-7(6H)-yl)-N-(2-(2-(trifluoromethyl)pyrimidin-5-yl)thiazol-4-yl)propanamide], the IC50 is 3 nM. Turning to `CCC(=O)Cn1c(=O)c2c(ncn2[C@@H](C)C(=O)Nc2csc(-c3ccc(N4CC5CC5C4)nc3)n2)n(C)c1=O` (stereo partly shown) [Compound 33], the IC50 amounted to 1 nM. With `C[C@@H](C(=O)Nc1cccc(-c2ccc(N3CC4CC4C3)nc2)n1)n1cnc2c1c(=O)n(CC#N)c(=O)n2C` (stereo partly drawn) [Compound 35, (2S)—N-(6′-(3-azabicyclo[3.1.0]hexan-3-yl)-2,3′-bipyridin-6-yl)-2-(1-(cyanomethyl)-3-methyl-2,6-dioxo-2,3-dihydro-1H-purin-7(6H)-yl)] the figure was 6 nM; with `CCN(CC)c1ncc(-c2nc(NC(=O)[C@H](C)n3cnc4c3c(=O)n(Cc3cc(C)on3)c(=O)n4C)cs2)cn1` [Compound 36, (S)—N-(2-(2-(diethylamino)pyrimidin-5-yl)thiazol-4-yl)-2-(3-methyl-1-((5-methylisoxazol-3-yl)methyl)-2,6-dioxo-2,3-dihydro-1H-purin-7(6H)-yl)propanamide], 2 nM. Turning to `CCC(=O)Cn1c(=O)c2c(ncn2[C@@H](C)C(=O)Nc2cccc(-c3ccc(N4CC5CC5C4)nc3)n2)n(C)c1=O` (stereo partly drawn) [Compound 37, (2S)—N-(6′-(3-azabicyclo[3.1.0]hexan-3-yl)-2,3′-bipyridin-6-yl)-2-(3-methyl-2,6-dioxo-1-(2-oxobutyl)-2,3-dihydro-1H-purin-7(6H)-yl)propanamide], the 50% inhibitory concentration (IC50) amounted to 3 nM. Consider `CCC(=O)Cn1c(=O)c2c(ncn2[C@@H](C)C(=O)Nc2csc(-c3cnc(N(CC)CC)nc3)n2)n(C)c1=O` [Compound 38, (S)—N-(2-(2-(diethylamino)pyrimidin-5-yl)thiazol-4-yl)-2-(3-methyl-2,6-dioxo-1-(2-oxobutyl)-2,3-dihydro-1H-purin-7(6H)-yl)propanamide], for which the half-inhibitory concentration (IC50) was found to be 3 nM. The same measure for `C[C@@H](C(=O)Nc1cccc(-c2cnc(N3CCC[C@@H]3C(F)(F)F)nc2)n1)n1cnc2c1c(=O)n(CC#N)c(=O)n2C` [Compound 39, (S)-2-(1-(cyanomethyl)-3-methyl-2,6-dioxo-2,3-dihydro-1H-purin-7(6H)-yl)-N-(6-(2-((R)-2-(trifluoromethyl)pyrrolidin-1-yl)pyrimidin-5-yl)pyridin-2-yl)propanamide]: 3 nM; for `C[C@@H](C(=O)Nc1cncc(-c2cnc(N3CCC[C@@H]3C(F)(F)F)nc2)n1)n1cnc2c1c(=O)n(CC#N)c(=O)n2C` [Compound 40, (S)-2-(1-(cyanomethyl)-3-methyl-2,6-dioxo-2,3-dihydro-1H-purin-7(6H)-yl)-N-(6-(2-((R)-2-(trifluoromethyl)pyrrolidin-1-yl)pyrimidin-5-yl)pyrazin-2-yl)propanamide]: 8 nM. On to `CC(=O)Cn1c(=O)c2c(ncn2[C@@H](C)C(=O)Nc2cncc(-c3ccc(N4CC5CC5C4)nc3)n2)n(C)c1=O` (stereo partly drawn) [Compound 41, (2S)—N-(6-(6-(3-azabicyclo[3.1.0]hexan-3-yl)pyridin-3-yl)pyrazin-2-yl)-2-(3-methyl-2,6-dioxo-1-(2-oxopropyl)-2,3-dihydro-1H-purin-7(6H)-yl)propanamide], for which the half-maximal inhibitory concentration (IC50) stood at 12 nM. With `CCC(=O)Cn1c(=O)c2c(ncn2[C@@H](C)C(=O)Nc2cncc(-c3ccc(N4CC5CC5C4)nc3)n2)n(C)c1=O` (stereo partly drawn) [Compound 42, (2S)—N-(6-(6-(3-azabicyclo[3.1.0]hexan-3-yl)pyridin-3-yl)pyrazin-2-yl)-2-(3-methyl-2,6-dioxo-1-(2-oxobutyl)-2,3-dihydro-1H-purin-7(6H)-yl)propanamide] the figure was 4 nM; with `C[C@@H](C(=O)Nc1cncc(-c2ccc(N3CC4CC4C3)nc2)n1)n1cnc2c1c(=O)n(CC#N)c(=O)n2C` (stereo partly drawn) [Compound 43, (2S)—N-(6-(6-(3-azabicyclo[3.1.0]hexan-3-yl)pyridin-3-yl)pyrazin-2-yl)-2-(1-(cyanomethyl)-3-methyl-2,6-dioxo-2,3-dihydro-1H-purin-7(6H)-yl)propanamide], 8 nM; with `CC(=O)Cn1c(=O)c2c(ncn2[C@@H](C)C(=O)Nc2cccc(-c3ccc(N4CC5CC5C4)nc3)n2)n(C)c1=O` (stereo partly drawn) [Compound 44, (2S)—N-(6′-(3-azabicyclo[3.1.0]hexan-3-yl)-2,3′-bipyridin-6-yl)-2-(3-methyl-2,6-dioxo-1-(2-oxopropyl)-2,3-dihydro-1H-purin-7(6H)-yl)propanamide], 14 nM. In the case of `C[C@@H](C(=O)Nc1cccc(-c2cnc(N3CCC[C@H]3C(F)(F)F)nc2)n1)n1cnc2c1c(=O)n(CC#N)c(=O)n2C` [Compound 45, (S)-2-(1-(cyanomethyl)-3-methyl-2,6-dioxo-2,3-dihydro-1H-purin-7(6H)-yl)-N-(6-(2-((S)-2-(trifluoromethyl)pyrrolidin-1-yl)pyrimidin-5-yl)pyridin-2-yl)propanamide], the concentration for half-maximal inhibition (IC50) turned out to be 4 nM. On to `CC(=O)Cn1c(=O)c2c(ncn2[C@@H](C)C(=O)Nc2ccnc(-c3ccc(N4CC5CC5C4)nc3)n2)n(C)c1=O` (stereo partly drawn) [Compound 46, (2S)—N-(2-(6-(3-azabicyclo[3.1.0]hexan-3-yl)pyridin-3-yl)pyrimidin-4-yl)-2-(3-methyl-2,6-dioxo-1-(2-oxopropyl)-2,3-dihydro-1H-purin-7(6H)-yl)propanamide], for which the 50% inhibitory concentration (IC50) was 22 nM. In the case of `CCC(=O)Cn1c(=O)c2c(ncn2[C@@H](C)C(=O)Nc2ccnc(-c3ccc(N4CC5CC5C4)nc3)n2)n(C)c1=O` (stereo partly drawn) [Compound 47, (2S)—N-(2-(6-(3-azabicyclo[3.1.0]hexan-3-yl)pyridin-3-yl)pyrimidin-4-yl)-2-(3-methyl-2,6-dioxo-1-(2-oxobutyl)-2,3-dihydro-1H-purin-7(6H)-yl)propanamide], the IC50 was 4 nM. Take `C[C@@H](C(=O)Nc1cncc(-c2cnc(N3CCC[C@H]3C(F)(F)F)nc2)n1)n1cnc2c1c(=O)n(CC#N)c(=O)n2C` [Compound 48, (S)-2-(1-(cyanomethyl)-3-methyl-2,6-dioxo-2,3-dihydro-1H-purin-7(6H)-yl)-N-(6-(2-((S)-2-(trifluoromethyl)pyrrolidin-1-yl)pyrimidin-5-yl)pyrazin-2-yl)propanamide]: the 50% inhibitory concentration (IC50) is 7 nM. Take `C[C@@H](C(=O)Nc1ccnc(-c2cnc(N3CCC[C@@H]3C(F)(F)F)nc2)n1)n1cnc2c1c(=O)n(CC#N)c(=O)n2C` [Compound 49, (S)-2-(1-(cyanomethyl)-3-methyl-2,6-dioxo-2,3-dihydro-1H-purin-7(6H)-yl)-N-(2′-((R)-2-(trifluoromethyl)pyrrolidin-1-yl)-2,5′-bipyrimidin-4-yl)propanamide]: the IC50 was 7 nM.

Regarding `C[C@@H](C(=O)Nc1csc(-c2cnc(N3CCC[C@@H]3C(F)(F)F)nc2)n1)n1cnc2c1c(=O)n(CC#N)c(=O)n2C` [Compound 50], the IC50 came to 4 nM. As to `C[C@@H](C(=O)Nc1cccc(-c2cnc(C(F)(F)F)nc2)n1)n1cnc2c1c(=O)n(CC1COC1)c(=O)n2C` [Compound 51, (S)-2-(3-methyl-1-(oxetan-3-ylmethyl)-2,6-dioxo-2,3-dihydro-1H-purin-7(6H)-yl)-N-(6-(2-(trifluoromethyl)pyrimidin-5-yl)pyridin-2-yl)propanamide], the IC50 is greater than 3200 nM.

Broadly, the IC50 is the concentration needed to halve the response being measured.
